Results on 1 compound are retold here after article doi:10.1101/2025.05.27.25328359, “OSBPL11 is an African-specific locus associated with 25-hydroxyvitamin D concentrations and cardiometabolic health” (medRxiv, 2025).

This experiment has as its target T1, OSBPL11 (OSBPL11-myc-His) (Homo sapiens, UniProt Q9BXB4).
T1 construct: full length, C-terminal myc-His tag (pcDNA3.1(+)myc/his C), transiently expressed in 293T cells; 100,000 g supernatant (S100) of lysate, not purified
T1 sequence (Q9BXB4 1-747): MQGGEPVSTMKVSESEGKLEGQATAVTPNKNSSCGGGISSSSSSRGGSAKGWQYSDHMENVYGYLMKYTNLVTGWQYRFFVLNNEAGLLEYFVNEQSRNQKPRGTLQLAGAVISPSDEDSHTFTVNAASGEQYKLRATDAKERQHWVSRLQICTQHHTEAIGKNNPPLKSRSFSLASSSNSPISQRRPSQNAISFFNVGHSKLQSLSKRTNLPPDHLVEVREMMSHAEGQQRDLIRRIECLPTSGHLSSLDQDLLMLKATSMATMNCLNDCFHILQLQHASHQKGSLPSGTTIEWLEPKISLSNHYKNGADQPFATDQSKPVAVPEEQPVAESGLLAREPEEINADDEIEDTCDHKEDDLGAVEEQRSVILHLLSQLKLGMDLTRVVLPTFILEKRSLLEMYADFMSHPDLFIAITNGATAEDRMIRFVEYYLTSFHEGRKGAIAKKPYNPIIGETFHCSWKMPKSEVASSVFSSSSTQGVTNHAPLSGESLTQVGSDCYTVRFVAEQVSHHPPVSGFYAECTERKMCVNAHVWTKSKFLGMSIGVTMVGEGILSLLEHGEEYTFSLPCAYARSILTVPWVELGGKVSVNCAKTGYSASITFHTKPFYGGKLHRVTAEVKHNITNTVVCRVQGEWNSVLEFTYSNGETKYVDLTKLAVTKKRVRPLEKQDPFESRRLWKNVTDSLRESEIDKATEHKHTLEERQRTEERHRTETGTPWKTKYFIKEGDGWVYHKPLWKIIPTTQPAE
As to the kind of experiment: [3H]-25-hydroxycholesterol competition binding, charcoal/dextran, S100 lysate. In kind it is biochemical.

For `C[C@H](CCCC(C)(C)O)[C@H]1CC[C@H]2[C@@H]3CC=C4C[C@@H](O)CC[C@]4(C)[C@H]3CC[C@]12C` [25-hydroxycholesterol], affinity was put at a Ki of 32 nM.

A word on the Ki: it is the equilibrium dissociation constant of an inhibitor or competing ligand from its target. Low values mean a stronger hold on the target, high ones a looser hold on the target.
